Values quoted from earlier work, collected in patent US20100063004A1, “TOPICAL PHARMACEUTICAL COMPOSITION” (priority 2006, published 2010).

Legend:
[1] = test system: herpes labialis (HSV-1); settings: 10% n-docosanol suspended in an aqueous system containing a non-ionic surfactant and a carrier; humans with herpes labialis (HSV-1)
[2] = test system: lipid enveloped viruses such as herpes
[3] = test system: enlargement of the prostate gland; settings: taken orally

## CCCCCCCCCCCCCCCCCCCCCCO [n-docosanol]
[1]
  mean healing time of lesions: shortened
other
  solubility in water: insoluble
[2]
  activity in cell cultures against lipid enveloped viruses: broad activity
[3]
  therapeutic effect in enlargement of the prostate gland: therapeutically effective
